Data reported in patent publication US20050037478A1, “Crystal structure of glutamate racemase (MurI)” (priority 2002, published 2005).

Experiments:
[1] = tested on: MurI resistance mutant proteins (A75T or E151K); test: Kinetic analysis of MurI resistance mutant proteins, forward direction (L-Glu→D-Glu); assay type: biochemical, H. pylori
Procedure: In this assay, the conversion of L-Glutamate to D-Glutamate was monitored spectrophotometrically through a two enzyme coupling system wherein, the production of D-glutamate is coupled to the incorporation of D-Glutamate into UDP-MurNAc-Ala-D-Glu by recombinant E. faecalis MurD, with concomitant hydrolysis of ATP to ADP and inorganic phosphate. […] Initial rates of reaction were determined by following the increase of absorbance at 360 nm in a 100 μL reaction volume containing 85 μL of reaction buffer (58 mM Tris, pH=8.0, 23.5 mM ammonium acetate, 23.5 mM magnesium acetate, 2.94 mM dithiothreitol, 2.94 mM adenosine triphosphate, 0.47 mM UDP-MurNAc-Ala, 0.47 mM MESG, 1.17 units./mL PNP, 16 μg/mL E. faecalis MurD, and 30 nM MurI) and 15 μL of L-Glutamate stock (0.05-10 mM). The increase in optical density at 360 nm was measured continuously in at 96 well microtitre plate in a Microplate Spectrophotometer System (Molecular Devices, SpectraMAX 250).

[2] = molecular target: recombinant H. pylori MurI (Helicobacter pylori, UniProt Q9ZLT0)
Source text: Kinetic constant for recombinant MurI were estimated by assaying its activity at various concentrations of protein and D-glutamic acid as described above.

[3] = molecular target: T1, H. pylori MurI A75T mutant (Helicobacter pylori, UniProt Q9ZLT0, A75T); conditions: reverse direction
T1 sequence (Q9ZLT0 1-255 A75T): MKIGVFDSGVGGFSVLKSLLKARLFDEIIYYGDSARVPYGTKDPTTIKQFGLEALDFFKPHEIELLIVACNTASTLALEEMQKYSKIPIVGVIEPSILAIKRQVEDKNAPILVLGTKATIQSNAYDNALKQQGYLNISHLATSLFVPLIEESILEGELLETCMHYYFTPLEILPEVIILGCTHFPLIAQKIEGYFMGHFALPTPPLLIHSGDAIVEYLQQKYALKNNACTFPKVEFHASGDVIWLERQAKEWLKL

[4] = molecular target: the molecule itself; test: X-ray crystallography, homodimer
[5] = molecular target: the molecule itself; test: X-ray crystallography (molecular replacement), homodimer

## N[C@@H](CCC(=O)O)C(=O)O [L-Glu, L-glutamate]
[1]
  elevation of KM for L-Glu relative to the native enzyme: 10 fold
  substrate inhibition by L-Glu: no substrate inhibition

## N[C@H](CCC(=O)O)C(=O)O [D-glutamate]
[2]
  substrate inhibition: Severe substrate inhibition
[2]; read-out: Km for D-glutamate
  Km: 100 µM
[3]; mutant enzyme vs wild-type
  shift of inhibition constant relative to the wild-type enzyme: > 120 fold
[3]; mutant enzyme
  substrate inhibition by D-glutamate: exhibits substrate inhibition

B1: Helicobacter pylori glutamate racemase (MurI), monomer chain of the homodimer (enzyme)
chain: MKIGVFDSGVGGFSVLKSLLKARLFDEIIYYGDSARVPYGTKDPTTIKQFGLEALDFFKPHEIELLIVACNTASALALEEMQKYSKIPIVGVIEPSILAIKRQVEDKNAPILVLGTKATIQSNAYDNALKQQGYLNISHLATSLFVPLIEESILEGELLETCMHYYFTPLEILPEVIILGCTHFPLIAQKIEGYFMGHFALPTPPLLIHSGDAIVEYLQQKYALKNNACTFPKVEFHASGDVIWLERQAKEWLKL
notes: also called H. pylori MurI; H. pylori glutamate racemase
[4]
  binding result: binds

B2: Enterococcus faecium glutamate racemase (MurI), monomer chain of the homodimer (enzyme)
chain: MIRLTDNRPIGFIDSGVGGLTVVKEALKQLPNENILFVGDTARCPYGPRPAEQVIQYTWEMTDYLVEQGIKMLVIACNTATAVALEEIKAALSIPVIGVILPGTRAAVKKTQNKQVGIIGTIGTVKSQAYEKALKEKVPELTVTSLACPKFVSVVESNEYHSSVAKKIVAETLAPLTTKKIDTLILGCTHYPLLRPIIQNVMGENVQLIDSGAETVGEVSMLLDYFNLSNSPQNGRTLCQFYTTGSAKLFEEIAEDWLGIGHLNVEHIELGGK
notes: also called E. faecium MurI; EF2
[5]
  binding result: binds

B3: Enterococcus faecalis glutamate racemase (MurI), monomer chain of the homodimer (enzyme)
chain: MSNQEAIGLIDSGVGGLTVLKEALKQLPNERLIYLGDTARCPYGPRPAEQVVQFTWEMADFLLKKRIKMLVIACNTATAVALEEIKAALPIPVVGVILPGARAAVKVTKNNKIGVIGTLGTIKSASYEIAIKSKAPAIEVTSLACPKFVPIVESNQYRSSVAKKIVAETLQALQLKGLDTLILGCTHYPLLRPVIQNVMGSHVTLIDSGAETVGEVSMLLDYFDIAHTPEAPTQPHEFYTTGSAKMFEEIASSWLGIENLKAQQIHLGGNEND
notes: also called E. faecalis MurI; E. faecalis glutamate racemase
[4]
  binding result: binds
